How the values were obtained:
Oryctolagus cuniculus [1] = organism: Oryctolagus cuniculus; assay: cells
Coagulation factor X = Coagulation factor X (Homo sapiens, UniProt P00742); assay: Binding affinity to human F10a
[2] = molecular target: Coagulation factor VII/tissue factor (Homo sapiens) (UniProt P08709+P13726); assay: Anticoagulant activity in plasma by PT assay; type: functional, cell-free
[3] = Clearance in dog; type: ADME, organism-based, Canis lupus familiaris; conditions: in vivo
[4] = Half life in orally dosed dog; type: ADME, organism-based, Canis lupus familiaris; conditions: in vivo, po
[5] = Protein binding in plasma by equilibrium dialysis assay; type: ADME, cell-free; conditions: read-out: PPB (converted)
[6] = Oral bioavailability in orally dosed dog; type: ADME, organism-based, Canis lupus familiaris; conditions: in vivo
[7] = Volume of distribution in dog; type: ADME, organism-based, Canis lupus familiaris; conditions: in vivo, read-out: Vdss
[8] = Apparent permeability in Caco-2 cells; type: ADME, cell-based; conditions: human
Prothrombin = Prothrombin (Homo sapiens, UniProt P00734); assay: Binding affinity to human F2a
Oryctolagus cuniculus [9] = organism: Oryctolagus cuniculus
Plasma kallikrein = Plasma kallikrein (Homo sapiens, UniProt P03952); assay: Binding affinity to human plasma kallikrein; type: cell-free
Coagulation factor IX = Coagulation factor IX (Homo sapiens, UniProt P00740); assay: Binding affinity to human f9a
[10] = molecular target: Vitamin K-dependent protein C (Homo sapiens, UniProt P04070); assay: Binding affinity to human APC
Trypsin = Trypsin (Homo sapiens, UniProt P07477+P07478+P35030); assay: Binding affinity to human trypsin; type: protein assay
Plasminogen = Plasminogen (Homo sapiens, UniProt P00747); assay: Binding affinity to human plasmin
Chymotrypsinogen B = Chymotrypsinogen B (Homo sapiens, UniProt P17538); assay: Binding affinity to human chymotrypsin
[11] = molecular target: Tissue-type plasminogen activator (Homo sapiens, UniProt P00750); assay: Binding affinity to human tPA
Coagulation factor VII = molecular target: T1, Coagulation factor VII (Homo sapiens, UniProt P08709); assay: Binding affinity to human f7a
T1 sequence (P08709 whole entry): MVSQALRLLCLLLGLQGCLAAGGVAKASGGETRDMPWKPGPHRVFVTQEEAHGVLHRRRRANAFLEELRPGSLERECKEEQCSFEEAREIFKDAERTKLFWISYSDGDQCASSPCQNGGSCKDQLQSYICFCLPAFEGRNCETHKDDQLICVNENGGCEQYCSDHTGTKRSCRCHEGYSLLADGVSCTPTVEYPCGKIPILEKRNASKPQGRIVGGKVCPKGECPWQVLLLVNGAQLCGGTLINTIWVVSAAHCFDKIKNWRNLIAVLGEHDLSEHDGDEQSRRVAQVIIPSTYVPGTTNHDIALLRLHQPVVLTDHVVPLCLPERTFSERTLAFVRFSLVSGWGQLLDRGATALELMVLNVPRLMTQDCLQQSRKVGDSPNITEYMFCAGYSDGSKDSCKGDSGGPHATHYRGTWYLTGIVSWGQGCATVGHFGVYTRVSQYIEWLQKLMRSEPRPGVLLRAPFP

Chain of Coagulation factor X (P00742 41-179 limits assumed): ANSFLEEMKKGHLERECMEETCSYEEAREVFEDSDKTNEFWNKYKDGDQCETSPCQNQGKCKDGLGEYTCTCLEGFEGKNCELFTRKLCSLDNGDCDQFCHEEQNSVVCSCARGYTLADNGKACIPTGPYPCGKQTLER
Chain of Coagulation factor X (P00742 235-488 limits assumed): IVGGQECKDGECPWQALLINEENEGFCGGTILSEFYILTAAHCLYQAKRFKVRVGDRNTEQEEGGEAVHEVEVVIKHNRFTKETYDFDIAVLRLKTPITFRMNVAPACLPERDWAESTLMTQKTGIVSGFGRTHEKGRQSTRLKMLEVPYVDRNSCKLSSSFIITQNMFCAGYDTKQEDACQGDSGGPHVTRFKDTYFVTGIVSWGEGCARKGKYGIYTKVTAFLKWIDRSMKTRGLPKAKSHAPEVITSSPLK
Chain of Vitamin K-dependent protein C (P04070 43-197 limits assumed): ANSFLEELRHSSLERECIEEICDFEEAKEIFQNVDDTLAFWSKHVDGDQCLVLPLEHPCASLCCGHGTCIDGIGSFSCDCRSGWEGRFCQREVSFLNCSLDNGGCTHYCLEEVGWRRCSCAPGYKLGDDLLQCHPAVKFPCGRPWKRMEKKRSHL
Chain of Vitamin K-dependent protein C (P04070 212-461 limits assumed): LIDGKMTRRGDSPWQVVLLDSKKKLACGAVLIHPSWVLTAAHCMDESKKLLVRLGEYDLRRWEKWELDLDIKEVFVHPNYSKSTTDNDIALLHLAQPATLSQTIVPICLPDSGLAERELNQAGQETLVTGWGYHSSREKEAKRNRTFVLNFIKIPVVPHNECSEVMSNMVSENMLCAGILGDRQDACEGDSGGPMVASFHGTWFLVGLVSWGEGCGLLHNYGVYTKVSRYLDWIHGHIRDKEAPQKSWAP
Chain of Coagulation factor IX (P00740 47-191 limits assumed): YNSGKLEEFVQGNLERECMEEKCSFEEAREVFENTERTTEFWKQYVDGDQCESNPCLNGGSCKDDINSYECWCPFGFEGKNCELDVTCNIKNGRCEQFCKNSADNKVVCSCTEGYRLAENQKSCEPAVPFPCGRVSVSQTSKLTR
Chain of Coagulation factor IX (P00740 227-461 limits assumed): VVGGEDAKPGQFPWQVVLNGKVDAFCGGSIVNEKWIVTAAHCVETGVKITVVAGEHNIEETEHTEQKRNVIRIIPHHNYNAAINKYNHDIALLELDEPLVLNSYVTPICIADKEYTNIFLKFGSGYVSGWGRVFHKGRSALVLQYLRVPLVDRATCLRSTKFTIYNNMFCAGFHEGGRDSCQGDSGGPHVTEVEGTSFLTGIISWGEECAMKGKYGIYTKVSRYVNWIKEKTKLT
Chain of Plasminogen (P00747 97-580 limits assumed): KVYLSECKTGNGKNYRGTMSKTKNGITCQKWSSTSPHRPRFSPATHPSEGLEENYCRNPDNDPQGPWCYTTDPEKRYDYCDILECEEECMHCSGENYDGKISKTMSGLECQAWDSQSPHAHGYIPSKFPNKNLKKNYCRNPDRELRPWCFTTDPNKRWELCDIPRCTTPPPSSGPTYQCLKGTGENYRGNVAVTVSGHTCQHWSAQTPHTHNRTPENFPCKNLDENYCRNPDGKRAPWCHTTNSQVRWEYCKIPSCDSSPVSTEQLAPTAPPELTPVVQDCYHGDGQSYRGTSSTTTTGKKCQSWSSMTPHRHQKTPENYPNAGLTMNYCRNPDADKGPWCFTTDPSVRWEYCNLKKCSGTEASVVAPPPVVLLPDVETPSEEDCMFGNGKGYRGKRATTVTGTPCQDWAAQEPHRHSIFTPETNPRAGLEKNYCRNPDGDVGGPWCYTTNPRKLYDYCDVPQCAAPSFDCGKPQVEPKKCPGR
Chain of Plasminogen (P00747 581-810 limits assumed): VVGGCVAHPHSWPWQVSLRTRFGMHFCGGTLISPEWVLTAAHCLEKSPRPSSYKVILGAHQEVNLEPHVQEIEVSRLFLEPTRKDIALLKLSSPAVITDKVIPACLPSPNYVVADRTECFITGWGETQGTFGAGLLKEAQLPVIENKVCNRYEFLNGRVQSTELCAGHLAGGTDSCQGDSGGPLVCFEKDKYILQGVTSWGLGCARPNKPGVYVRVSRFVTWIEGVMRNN
Chain of Plasma kallikrein (P03952 20-390 limits assumed): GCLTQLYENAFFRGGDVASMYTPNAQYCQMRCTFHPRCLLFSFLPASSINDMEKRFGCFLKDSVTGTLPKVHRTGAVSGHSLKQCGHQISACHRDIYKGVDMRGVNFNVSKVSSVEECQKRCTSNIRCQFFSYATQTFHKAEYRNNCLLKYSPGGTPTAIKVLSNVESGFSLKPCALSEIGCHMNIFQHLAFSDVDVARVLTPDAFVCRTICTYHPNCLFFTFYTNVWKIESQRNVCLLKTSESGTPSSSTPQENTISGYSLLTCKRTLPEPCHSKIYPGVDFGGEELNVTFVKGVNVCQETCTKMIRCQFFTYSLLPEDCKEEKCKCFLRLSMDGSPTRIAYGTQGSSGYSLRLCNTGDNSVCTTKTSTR
Chain of Plasma kallikrein (P03952 391-638 limits assumed): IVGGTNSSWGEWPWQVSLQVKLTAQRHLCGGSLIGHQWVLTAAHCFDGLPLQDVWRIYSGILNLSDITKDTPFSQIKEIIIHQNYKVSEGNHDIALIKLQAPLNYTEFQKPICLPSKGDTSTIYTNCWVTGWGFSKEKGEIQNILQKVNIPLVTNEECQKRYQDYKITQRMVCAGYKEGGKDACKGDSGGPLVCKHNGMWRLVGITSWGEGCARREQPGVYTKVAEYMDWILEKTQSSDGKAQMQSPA
Chain of Chymotrypsinogen B (P17538 34-164 limits assumed, other chains not shown): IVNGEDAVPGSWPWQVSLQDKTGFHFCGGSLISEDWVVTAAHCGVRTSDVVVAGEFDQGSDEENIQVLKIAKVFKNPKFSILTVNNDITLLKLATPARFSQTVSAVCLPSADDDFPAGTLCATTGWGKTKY
Chain of Chymotrypsinogen B (P17538 167-263 limits assumed, other chains not shown): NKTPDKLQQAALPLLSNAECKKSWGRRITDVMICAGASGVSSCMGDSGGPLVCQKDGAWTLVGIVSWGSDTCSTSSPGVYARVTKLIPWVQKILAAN
Chain of Tissue-type plasminogen activator (P00750 whole entry): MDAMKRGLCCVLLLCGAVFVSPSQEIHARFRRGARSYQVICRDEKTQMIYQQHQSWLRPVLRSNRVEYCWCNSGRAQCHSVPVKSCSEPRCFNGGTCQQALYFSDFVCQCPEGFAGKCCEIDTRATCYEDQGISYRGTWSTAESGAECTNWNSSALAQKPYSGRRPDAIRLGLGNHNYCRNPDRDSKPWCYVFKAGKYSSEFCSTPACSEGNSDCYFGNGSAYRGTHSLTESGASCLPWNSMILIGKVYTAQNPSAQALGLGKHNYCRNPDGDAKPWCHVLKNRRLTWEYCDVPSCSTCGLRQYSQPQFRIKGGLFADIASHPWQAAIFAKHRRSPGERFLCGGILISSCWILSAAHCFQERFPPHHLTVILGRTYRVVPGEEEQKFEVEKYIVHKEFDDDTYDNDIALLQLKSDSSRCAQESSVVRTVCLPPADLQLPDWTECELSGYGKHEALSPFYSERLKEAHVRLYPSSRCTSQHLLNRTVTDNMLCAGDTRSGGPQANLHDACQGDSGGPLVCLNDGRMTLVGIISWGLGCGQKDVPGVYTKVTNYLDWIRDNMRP

Row | SMILES | Ki (Coagulation factor X) [nM] | 2PT [2] [µM] | bioavailability [6] [%] | Ki (Prothrombin) [nM] | clearance [3] [mL/min/kg] | half-life [4] [h] | Vd [7] [L/kg] | other results
1 | Nc1noc2ccc(-n3nc(C(F)(F)F)c4c3C(=O)N(c3ccc(-c5ccccc5CN5CCCC5)cc3F)CC4)cc12 | 0.24 | 6.1 | 85 | – | 13.2 | 4.9 | 4.8 | IC50 (Oryctolagus cuniculus [1]): 1000 nM; fraction unbound [5]: < 0.02
2 | Nc1noc2ccc(-n3nc(C(F)(F)F)c4c3C(=O)N(c3ccc(-c5ccccc5CN5CC[C@@H](O)C5)cc3F)CC4)cc12 | 0.16 | 8.4 | 81 | 72 | 5.83 | 5.9 | 2.8 | IC50 (Oryctolagus cuniculus [1]): 600 nM; Papp [8]: 13 ×10⁻⁶ cm/s; fraction unbound [5]: < 0.02
3 | CN1CCN(Cc2ccccc2-c2ccc(N3CCc4c(C(F)(F)F)nn(-c5ccc6onc(N)c6c5)c4C3=O)cc2)CC1 | 0.71 | 31 | – | 230 | – | – | – | –
4 | Nc1noc2ccc(-n3nc(C(F)(F)F)c4c3C(=O)N(c3ccc(-c5ccccc5CN5CCC(O)CC5)cc3)CC4)cc12 | 0.22 | 4.9 | 102 | 71 | 3.5 | 6.4 | 1.4 | IC50 (Oryctolagus cuniculus [1]): 510 nM; Papp [8]: 0.4 ×10⁻⁶ cm/s
5 | Cc1nn(-c2ccc3onc(N)c3c2)c2c1CCN(c1ccc(-c3ccccc3CN3CC[C@@H](O)C3)cc1)C2=O | 0.27 | 2.8 | 44 | 130 | 7 | 1.7 | 0.75 | Papp [8]: 6.2 ×10⁻⁶ cm/s; ID50 (Oryctolagus cuniculus [9]): 0.6 ug/hr.kg
6 | CN(C)Cc1ccccc1-c1ccc(N2CCc3c(C(F)(F)F)nn(-c4ccc5onc(N)c5c4)c3C2=O)c(F)c1 | 0.13 | 5.6 | 83 | 75 | 17.5 | 6.4 | 8.8 | IC50 (Oryctolagus cuniculus [1]): 600 nM; Papp [8]: 8.9 ×10⁻⁶ cm/s; fraction unbound [5]: < 0.02
7 | CN(C)Cc1ccccc1-c1ccc(N2CCc3c(C(F)(F)F)nn(-c4ccc5onc(N)c5c4)c3C2=O)cc1 | 0.04 | 2.7 | 50 | 43 | 16.3 | 3.8 | 4.5 | IC50 (Oryctolagus cuniculus [1]): 223 nM; Papp [8]: 4.7 ×10⁻⁶ cm/s
8 | CCN(C)Cc1ccccc1-c1ccc(N2CCc3c(C(F)(F)F)nn(-c4ccc5onc(N)c5c4)c3C2=O)cc1 | < 0.1 | 3.2 | – | 57 | – | – | – | –
9 | Nc1noc2ccc(-n3nc(C(F)(F)F)c4c3C(=O)N(c3ccc(-c5ccccc5CN5CCNCC5)cc3)CC4)cc12 | 0.64 | 14 | – | 280 | – | – | – | –
10 | Cc1nn(-c2ccc3onc(N)c3c2)c2c1CCN(c1ccc(-c3ccccc3CN3CC[C@@H](O)C3)cc1F)C2=O | 0.34 | 4.9 | 62 | 250 | 15.7 | 1.1 | 1.1 | –
11 | CN(C)Cc1ccccc1-c1ccc(N2CNc3c(C(F)(F)F)nn(-c4ccc5onc(N)c5c4)c3C2=O)cc1 | 0.25 | 1.4 | – | – | – | – | – | –
12 | Cc1nn(-c2ccc3onc(N)c3c2)c2c1CCN(c1ccc(-c3ccccc3CN(C)C)cc1)C2=O | 0.55 | 2.1 | 13 | 380 | 53.3 | 1.6 | 6.4 | Papp [8]: 6.8 ×10⁻⁶ cm/s
13 | CN(C)Cc1ccccc1-c1ccc(N2CC=Cc3c(C(F)(F)F)nn(-c4ccc5onc(N)c5c4)c3C2=O)cc1 | 0.6 | 6.9 | – | – | – | – | – | –
14 | CCN(CC)Cc1ccccc1-c1ccc(N2CCc3c(C(F)(F)F)nn(-c4ccc5onc(N)c5c4)c3C2=O)cc1 | 0.11 | 3 | – | 97 | – | – | – | –

Second part, led by results:

Row | Ki (Coagulation factor X) [nM] | 2PT [2] [µM] | bioavailability [6] [%] | Ki (Prothrombin) [nM] | SMILES | clearance [3] [mL/min/kg] | half-life [4] [h] | Vd [7] [L/kg] | other results
15 | 0.15 | 3.2 | 37 | 58 | Nc1noc2ccc(-n3nc(C(F)(F)F)c4c3C(=O)N(c3ccc(-c5ccccc5CN5CCCC5)cc3)CC4)cc12 | 16.8 | 5.3 | 5 | –
16 | – | 4.2 | – | – | CN(C)Cc1ccccc1-c1ccc(NC(=O)c2cc(C(F)(F)F)nn2-c2ccc3onc(N)c3c2)c(F)c1 | – | – | – | –
17 | 0.31 | 1.4 | 10 | 120 | Cc1nn(-c2ccc3onc(N)c3c2)c2c1CCN(c1ccc(-c3ccccc3CN3CCCC3)cc1)C2=O | 31.7 | 1.7 | 3.3 | –
18 | 0.85 | 8.5 | – | – | CN(C)Cc1ccccc1-c1ccc(N2CCCc3c(C(F)(F)F)nn(-c4ccc5onc(N)c5c4)c3C2=O)c(F)c1 | – | – | – | –
19 | – | 3.6 | 82 | 35 | Nc1noc2ccc(-n3nc(C(F)(F)F)c4c3C(=O)N(c3ccc(-c5ccccc5CN5CC[C@@H](O)C5)cc3)CC4)cc12 | – | – | – | Papp [8]: 1.7 ×10⁻⁶ cm/s; Ki (Plasma kallikrein): > 2800 nM; Ki (Coagulation factor IX): > 2800 nM; Ki [10]: > 2800 nM; Ki (Trypsin): > 2800 nM; Ki (Plasminogen): > 2800 nM; Ki (Chymotrypsinogen B): > 2800 nM; fraction unbound [5]: 0.026; Ki [11]: > 2800 nM; Ki (Coagulation factor VII): > 2800 nM
20 | 0.34 | 3.7 | 67 | 150 | CNCc1ccccc1-c1ccc(N2CCc3c(C(F)(F)F)nn(-c4ccc5onc(N)c5c4)c3C2=O)cc1 | 27.7 | 7.4 | 9.7 | –
21 | 0.35 | 41 | – | 130 | Nc1noc2ccc(-n3nc(C(F)(F)F)c4c3C(=O)N(c3ccc(-c5ccccc5CN5CCOCC5)cc3)CC4)cc12 | – | – | – | –
22 | 0.6 | 15 | – | – | CN(C)Cc1ccccc1-c1ccc(N2CC=Cc3c(C(F)(F)F)nn(-c4ccc5onc(N)c5c4)c3C2=O)c(F)c1 | – | – | – | –
23 | 0.81 | 4 | – | – | CN(C)Cc1ccccc1-c1ccc(N2CCCc3c(C(F)(F)F)nn(-c4ccc5onc(N)c5c4)c3C2=O)cc1 | – | – | – | –
24 | – | 2.1 | – | – | CN(C)Cc1nccn1-c1ccc(NC(=O)c2cc(C(F)(F)F)nn2-c2ccc3onc(N)c3c2)c(F)c1 [RAZAXABAN] | – | – | – | Ki [10]: > 2300 nM
25 | – | 4.8 | 52 | 59 | Nc1noc2ccc(-n3nc(C(F)(F)F)c4c3C(=O)N(c3ccc(-c5ccccc5CN5CC[C@H](O)C5)cc3)CC4)cc12 | 4.5 | 4.5 | 1.12 | –
